Reference: PubChem BioAssay AID256 (DTP/NCI, 2004)
Several values for one entry are separate records, joined by “and”; a condition that tells them apart may be missing. Identical values can stand only once. Toxic doses and inconclusive results are not listed. The calls were made as follows: active = survival T/C of 150% or more; inactive = T/C below 125% in these data.

Tested on: CD2F1 mice, L1210 leukemia ip, survival T/C
Experiment: NCI In Vivo Anticancer Drug Screen. Data for tumor model L1210 Leukemia (intraperitoneal) in CD2F1 (CDF1) mice
Settings: higher = longer survival
Method in brief: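 In this screen, transplantable tumors were grown in mice given either the compound or its vehicle. Results were expressed as the treated measurement relative to the control measurement.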

[1] = endpoint: mean survival time, dose: 100.0 mg/kg/injection, schedule: Q04DX003 (ip), vehicle: saline with Tween-80
[2] = endpoint: mean survival time, dose: 200.0 mg/kg/injection, schedule: Q04DX003 (ip), vehicle: saline with Tween-80

Measured: T/C

COc1cccc2c1C(CO)N1C(C#N)C3CC(C(=O)O)C(C1C2)N3C (stereo not given)
inactive: endpoint: median survival time, dose: 3.12 mg/kg/injection, schedule: Q01DX005 (ip), vehicle: saline 112 % of control | endpoint: median survival time, dose: 6.25 mg/kg/injection, schedule: Q01DX005 (ip), vehicle: saline 110 % of control | endpoint: median survival time, dose: 9.0 mg/kg/injection, schedule: Q01DX005 (ip), vehicle: suspension in saline 120 % of control and 111 % of control | endpoint: median survival time, dose: 12.5 mg/kg/injection, schedule: Q01DX005 (ip), vehicle: saline 112 % of control | endpoint: median survival time, dose: 15.0 mg/kg/injection, schedule: Q01DX005 (ip), vehicle: suspension in saline 124 % of control | endpoint: median survival time, dose: 41.67 mg/kg/injection, schedule: Q01DX005 (ip), vehicle: suspension in saline 87 % of control | endpoint: median survival time, dose: 50.0 mg/kg/injection, schedule: Q01DX005 (ip), vehicle: saline 89 % of control

OC1COC(C(/C=N/Nc2ccccc2)=N/Nc2ccccc2)C1O (stereo not given)
inactive: endpoint: median survival time, dose: 25.0 mg/kg/injection, schedule: Q01DX005 (ip), vehicle: distilled water + Tween-80 97 % of control | endpoint: median survival time, dose: 50.0 mg/kg/injection, schedule: Q01DX005 (ip), vehicle: distilled water + Tween-80 94 % of control | endpoint: median survival time, dose: 100.0 mg/kg/injection, schedule: Q01DX005 (ip), vehicle: distilled water + Tween-80 87 % of control | endpoint: median survival time, dose: 200.0 mg/kg/injection, schedule: Q01DX005 (ip), vehicle: distilled water + Tween-80 92 % of control | endpoint: median survival time, dose: 400.0 mg/kg/injection, schedule: Q01DX005 (ip), vehicle: distilled water + Tween-80 92 % of control

OCCN1CCN(CCO)CC1.[Cl][Pt+2][Cl]
inactive: endpoint: mean survival time, dose: 25.0 mg/kg/injection, schedule: Q04DX003 (ip), vehicle: saline with Tween-80 101 % of control | [1] 97 % of control | [2] 94 % of control

S=C(N/N=C1/CCCC/C1=N/NC(=S)N1CCOCC1)N1CCOCC1
inactive: endpoint: median survival time, dose: 1.5 mg/kg/injection, schedule: Q01DX009 (ip), vehicle: saline with Tween-80 95 % of control | endpoint: median survival time, dose: 3.0 mg/kg/injection, schedule: Q01DX009 (ip), vehicle: saline with Tween-80 96 % of control | endpoint: median survival time, dose: 6.0 mg/kg/injection, schedule: Q01DX009 (ip), vehicle: saline with Tween-80 108 % of control | endpoint: median survival time, dose: 12.0 mg/kg/injection, schedule: Q01DX009 (ip), vehicle: saline with Tween-80 109 % of control

O=C(O)/C=C\C(=O)O
inactive: endpoint: mean survival time, dose: 0.5 mg/kg/injection, schedule: Q04DX003 (ip), vehicle: saline with Tween-80 107 % of control | endpoint: mean survival time, dose: 1.0 mg/kg/injection, schedule: Q01DX009 (ip), vehicle: saline 100 % of control | endpoint: mean survival time, dose: 1.0 mg/kg/injection, schedule: Q04DX003 (ip), vehicle: saline with Tween-80 95 % of control | endpoint: mean survival time, dose: 1.56 mg/kg/injection, schedule: Q04DX003 (ip), vehicle: saline 89 % of control and 95 % of control | endpoint: mean survival time, dose: 2.0 mg/kg/injection, schedule: Q01DX009 (ip), vehicle: saline 97 % of control | endpoint: mean survival time, dose: 3.0 mg/kg/injection, schedule: Q04DX003 (ip), vehicle: saline with Tween-80 103 % of control | endpoint: mean survival time, dose: 3.13 mg/kg/injection, schedule: Q04DX003 (ip), vehicle: saline 87 % of control and 91 % of control | endpoint: mean survival time, dose: 6.0 mg/kg/injection, schedule: Q04DX003 (ip), vehicle: saline with Tween-80 103 % of control | endpoint: mean survival time, dose: 6.25 mg/kg/injection, schedule: Q04DX003 (ip), vehicle: saline 92 % of control and 96 % of control

CCNC1=CC(=O)CC(C)(C)C1
inactive: endpoint: mean survival time, dose: 75.0 mg/kg/injection, schedule: Q01DX001 (ip), vehicle: saline 106 % of control | endpoint: mean survival time, dose: 150.0 mg/kg/injection, schedule: Q01DX001 (ip), vehicle: saline 101 % of control | endpoint: mean survival time, dose: 300.0 mg/kg/injection, schedule: Q01DX001 (ip), vehicle: saline 109 % of control

CC(=O)O.CC(=O)O.O.[Fe]
inactive: endpoint: mean survival time, dose: 100.0 mg/kg/injection, schedule: Q01DX001 (ip), vehicle: saline 98 % of control | endpoint: mean survival time, dose: 200.0 mg/kg/injection, schedule: Q01DX001 (ip), vehicle: saline 96 % of control | endpoint: mean survival time, dose: 400.0 mg/kg/injection, schedule: Q01DX001 (ip), vehicle: saline 100 % of control

CCOC(=O)C(Br)C(Br)c1ccccc1 (stereo not given)
inactive: endpoint: mean survival time, dose: 50.0 mg/kg/injection, schedule: Q01DX009 (ip), vehicle: saline 108 % of control | endpoint: mean survival time, dose: 100.0 mg/kg/injection, schedule: Q01DX009 (ip), vehicle: saline 103 % of control | endpoint: mean survival time, dose: 200.0 mg/kg/injection, schedule: Q01DX009 (ip), vehicle: saline 103 % of control

CC1(C)C(=O)CCC2(C)C(OC(=O)c3ccc(C(=O)O)cc3)CCCC12 (stereo not given)
inactive: [1] 96 % of control | [2] 93 % of control | endpoint: mean survival time, dose: 400.0 mg/kg/injection, schedule: Q04DX003 (ip), vehicle: saline with Tween-80 93 % of control
